Test results published in patent US20240246946A1, “MODULATORS OF TREX1” (Constellation Pharmaceuticals, Inc., priority 2021, published 2024).

Tests used:
full length mouse TREX1 = molecular target: T1, full length mouse TREX1 (Mus musculus, UniProt Q91XB0); experiment: mTREX1 Biochemical Assay (fluorescence, dsDNA substrate degradation); details: biochemical, read-out: mTREX1 IC50
T1 construct: N-terminally His-Tev tagged full length mouse TREX1; made in house; host or cells: E. coli
T1 sequence (Q91XB0 1-314): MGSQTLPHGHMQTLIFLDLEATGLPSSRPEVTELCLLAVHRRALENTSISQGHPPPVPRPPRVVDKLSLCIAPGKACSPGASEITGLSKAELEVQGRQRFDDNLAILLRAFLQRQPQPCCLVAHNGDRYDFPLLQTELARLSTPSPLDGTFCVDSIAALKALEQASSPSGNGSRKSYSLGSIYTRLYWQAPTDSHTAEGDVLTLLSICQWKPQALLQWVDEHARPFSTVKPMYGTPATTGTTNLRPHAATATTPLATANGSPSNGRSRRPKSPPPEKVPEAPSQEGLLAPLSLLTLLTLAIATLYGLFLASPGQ
Summary of the method: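 Reaction run 18 h at 25° C. with 60 nM TEX615/quencher-labelled dsDNA and 6 pM mouse TREX1 in Tris buffer (pH 7.4, 5 mM MgCl2, 1.0% DMSO), enzyme having sat 4 h with compound across 10 concentrations. EDTA quench; substrate degradation measured as fluorescence increase.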

hTREX1 = molecular target: T2, hTREX1 (Homo sapiens, UniProt Q9NSU2); experiment: hTREX1 HCT116 Cell Assay (HCT116 dual cells, Lucia luciferase reporter of Type I interferon induction); format: cell-based; details: TREX1i 4 h before pBR322/BstNI transfection, read after 48 h
T2 construct: host or cells: HCT116 dual cells
T2 sequence (Q9NSU2 1-314): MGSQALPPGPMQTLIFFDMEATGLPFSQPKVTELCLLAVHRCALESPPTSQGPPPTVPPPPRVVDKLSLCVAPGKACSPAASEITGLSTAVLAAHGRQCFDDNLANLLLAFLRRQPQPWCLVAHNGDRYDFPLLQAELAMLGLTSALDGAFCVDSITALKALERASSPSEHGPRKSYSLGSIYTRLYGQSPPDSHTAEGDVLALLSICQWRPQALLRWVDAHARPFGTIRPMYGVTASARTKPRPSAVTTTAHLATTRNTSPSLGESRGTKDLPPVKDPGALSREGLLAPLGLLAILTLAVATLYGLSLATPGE
Text: HCT116 dual cells (Invivogen, San Diego, CA, USA) are derived from the human HCT116 colorectal carcinoma cell line. Cells have been selected for the stable integration of SEAP and Luciferase reporter genes, which expression is under the control of 5 tandem response elements for NF-KB/AP1 and STAT1/STAT2, respectively. The cell line was used to monitor Type I interferon induction and subsequent signaling by measuring the activity of the Lucia luciferase secreted in the culture medium.
HCT116 cells were plated in 96-well plate(s) at 40,000 cells/well in 100 uL DMEM supplemented with 10% FBS and 25 mM Hepes (pH 7.2-7.5). After overnight settling, cells were treated with TREX1i for 4 h (maximum DMSO fraction was 0.1%) before 1 ug/mL pBR322/BstNI restriction digest (New England Biolabs, Ipswich, MA, USA) was transfected with Lipofectamine LTX (ThermoFisher, Grand Island, NY, USA), according to product manual recommendations. Briefly, Lipofectamine LTX (0.35 uL/well) was diluted in OptiMEM (5 uL/well). pBR322/BstNI (100 ng/well) was diluted in OptiMEM (5 uL/well) before Plus reagent (0.1 uL/100 ng DNA) was added. After 5 min incubation at room temperature, the DNA mixture was mixed dropwise with the diluted Lipofectamine LTX. After an additional 10 min incubation, the transfection mix (10 uL/well) was added to the cells. Cells were maintained at 37 C for 48 h before monitoring the Lucia Luciferase activity from the cell culture medium.

full length human TREX1 = molecular target: T3, full length human TREX1 (Homo sapiens, UniProt Q9NSU2); experiment: hTREX1 Biochemical Assay (fluorescence, dsDNA substrate degradation); details: biochemical, read-out: hTREX1 IC50
T3 construct: N-terminally His-Tev tagged full length human TREX1; made in house; host or cells: E. coli
T3 sequence (Q9NSU2 1-314): T2 sequence (Q9NSU2 1-314)
Summary of the method: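 Cleavage of 60 nM TEX615/quencher-labelled dsDNA in pH 7.4 Tris buffer with 5 mM MgCl2, 1.0% DMSO, run 18 hours at 25° C, EDTA-quenched; fluorescence read-out.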

[1] = molecular target: T4, human TREX2 (residues M44-A279) (Homo sapiens, UniProt Q9BQ50); experiment: hTREX2 Biochemical Assay (fluorescence, dsDNA substrate degradation); details: biochemical selectivity for hTREX1 vs hTREX2
T4 construct: human TREX2 (residues M44-A279, expressed in E. coli); made in house; host or cells: E. coli
T4 sequence (Q9BQ50 44-279 isoform Q9BQ50-1): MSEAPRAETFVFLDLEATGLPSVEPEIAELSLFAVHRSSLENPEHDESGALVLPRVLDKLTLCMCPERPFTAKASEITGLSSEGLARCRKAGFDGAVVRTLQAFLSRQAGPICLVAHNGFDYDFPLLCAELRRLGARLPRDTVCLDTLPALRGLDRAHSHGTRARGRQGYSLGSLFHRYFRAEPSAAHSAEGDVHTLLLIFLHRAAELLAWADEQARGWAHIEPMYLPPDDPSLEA
Summary of the method: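 N-His-Tev E. coli enzyme (50 pM) pre-incubated with compound 4 h at 25 °C, then 60 nM TEX615/quencher dsDNA added; 18 h at 25 °C, pH 7.4 Tris buffer with 5 mM MgCl2, 1.0% DMSO. EDTA-quenched; fluorescence 570 ex/615 em from liberated fluorophore, 10-point dose-response.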

IC50 (full length mouse TREX1) [µM]	IC50 (hTREX1) [µM]	IC50 (full length human TREX1) [µM]	Compound	hTREX1 vs hTREX2 selectivity [1]
> 0.01	> 0.1	0.001 to 0.01	Cc1cc(C(c2ccccc2C#N)C(C)c2nc(C(=O)Nc3cnoc3)c(O)c(=O)n2C)ccn1 (single isomer, unassigned) [Example 6 D2E2]	
	< 0.01		Cc1cnc(C)c(C(c2cc(F)ccc2C#N)C(C)c2nc(C(=O)Nc3cnoc3)c(O)c(=O)n2C)n1 (single isomer, unassigned) [Example 119 D1E1]	
> 0.01	> 0.1	0.001 to 0.01	CC(c1nc(C(=O)Nc2cnoc2)c(O)c(=O)n1C)C(c1cnn(C(F)F)c1)c1ccccc1C#N (single isomer, unassigned) [Example 38 D2E2]	
0.001 to 0.01	< 0.01	< 0.001	CC(c1nc(C(=O)Nc2cnoc2)c(O)c(=O)n1C)C(c1cnn(C)c1)c1cc(F)ccc1Cl (single isomer, unassigned) [Example 61 D1E1]	
0.001 to 0.01	> 0.1	< 0.001	CC(c1nc(C(=O)Nc2cnoc2)c(O)c(=O)n1C)C(c1cnn(CCCN(C)C)c1)c1ccccc1C#N (single isomer, unassigned) [Example 34 D1E1]	
< 0.001	< 0.01	< 0.001	CCn1ncc(C(c2ccccc2C#N)C(C)c2nc(C(=O)Nc3cnoc3)c(O)c(=O)n2C)c1C (single isomer, unassigned) [Example 68 D1E1]	
> 0.01	> 0.1	0.001 to 0.01	CC(c1nc(C(=O)Nc2cnoc2)c(O)c(=O)n1C)C(c1cocn1)c1ccccc1C#N (single isomer, unassigned) [Example 50 D1E1]	
> 0.01	> 0.1	0.001 to 0.01	Cc1ccc(C(c2ccccc2C#N)C(C)c2nc(C(=O)Nc3cnoc3)c(O)c(=O)n2C)cn1 (single isomer, unassigned) [Example 5 D2E2]	
0.001 to 0.01	< 0.01	< 0.001	Cc1nn(C)cc1C(c1cc(F)ccc1Cl)C(C)c1nc(C(=O)Nc2cnoc2)c(O)c(=O)n1C (single isomer, unassigned) [Example 62 D2E2]	
0.001 to 0.01	< 0.01	< 0.001	CC(c1nc(C(=O)Nc2cnoc2)c(O)c(=O)n1C)C(c1cnn(C)c1)c1c(C#N)cccc1C#N (single isomer, unassigned) [Example 19 D1E2]	
> 0.01	0.01 to 0.1	0.001 to 0.01	CC(c1nc(C(=O)Nc2cnoc2)c(O)c(=O)n1C)C(c1ncn(C)n1)c1ccccc1C#N (single isomer, unassigned) [Example 51 D1E2]	
> 0.01	0.01 to 0.1	0.001 to 0.01	CC(c1nc(C(=O)Nc2cnoc2)c(O)c(=O)n1C)C(c1ccccc1C#N)c1cn(C)nc1C#N (single isomer, unassigned) [Example 10 D1E2]	
> 0.01	> 0.1	> 0.01	CC(c1nc(C(=O)Nc2cnoc2)c(O)c(=O)n1C)C(c1ccccc1C#N)c1c(C#N)cnn1C (single isomer, unassigned) [Example 52 D2E1]	
> 0.01	0.01 to 0.1	0.001 to 0.01	Cc1nn(C)c(C)c1C(c1ccccc1C#N)C(C)c1nc(C(=O)Nc2cnoc2)c(O)c(=O)n1C (single isomer, unassigned) [Example 78 D2E1]	
0.001 to 0.01	> 0.1	< 0.001	CC(c1nc(C(=O)Nc2cnoc2)c(O)c(=O)n1C)C(c1cnn(CC(C)(C)O)c1)c1ccccc1C#N (single isomer, unassigned) [Example 36 D1E1]	
0.001 to 0.01	0.01 to 0.1	< 0.001	COC(C)(C)Cn1cc(C(c2ccccc2C#N)C(C)c2nc(C(=O)Nc3cnoc3)c(O)c(=O)n2C)cn1 (single isomer, unassigned) [Example 37 D1E1]	
> 0.01	> 0.1	0.001 to 0.01	Cc1nn(C)cc1C(c1ccccc1C#N)C(C)c1nc(C(=O)Nc2cnoc2)c(O)c(=O)n1C (single isomer, unassigned) [Example 3 D2E2]	
0.001 to 0.01	> 0.1	< 0.001	COCCn1cc(C(c2cc(F)ccc2C#N)C(C)c2nc(C(=O)Nc3cnoc3)c(O)c(=O)n2C)cn1 (single isomer, unassigned) [Example 18 D1E2]	
< 0.001	< 0.01	< 0.001	CCn1ncc(C(c2ccc(F)cc2C#N)C(C)c2nc(C(=O)Nc3cnoc3)c(O)c(=O)n2C)c1C (single isomer, unassigned) [Example 65 D1E1]	
> 0.01	0.01 to 0.1	0.001 to 0.01	CC(c1nc(C(=O)Nc2cnoc2)c(O)c(=O)n1C)C(c1ccccc1C#N)c1c(C#N)cnn1C (single isomer, unassigned) [Example 52 D1E1]	
0.001 to 0.01	0.01 to 0.1	< 0.001	CC(c1nc(C(=O)Nc2cnoc2)c(O)c(=O)n1C)C(c1cnn(C)c1)c1cc(F)c(F)cc1Cl (single isomer, unassigned) [Example 28 D1E1]	
> 0.01	> 0.1	0.001 to 0.01	CC(c1nc(C(=O)Nc2cnoc2)c(O)c(=O)n1C)C(c1cnn(C)c1)c1cccnc1C#N (single isomer, unassigned) [Example 7 D1E1]	
0.001 to 0.01	0.01 to 0.1	< 0.001	Cc1c(C(c2ccccc2C#N)C(C)c2nc(C(=O)Nc3cnoc3)c(O)c(=O)n2C)cnn1C (single isomer, unassigned) [Example 4 D1E1]	
> 0.01	> 0.1	0.001 to 0.01	CC(c1nc(C(=O)Nc2cnoc2)c(O)c(=O)n1C)C(c1cnn(C)c1)c1ccncc1C#N (single isomer, unassigned) [Example 8 D2E2]	
0.001 to 0.01	> 0.1	< 0.001	CC(c1nc(C(=O)Nc2cnoc2)c(O)c(=O)n1C)C(c1cnn(CCN2CCN(C)CC2)c1)c1ccccc1C#N (single isomer, unassigned) [Example 32 D1E1]	
0.001 to 0.01	0.01 to 0.1	< 0.001	CC(c1nc(C(=O)Nc2cnoc2)c(O)c(=O)n1C)C(c1cnn(C)c1)c1ccncc1C#N (single isomer, unassigned) [Example 8 D1E2]	
> 0.01		> 0.01	CC(c1nc(C(=O)Nc2cnoc2)c(O)c(=O)n1C)C(c1cnn(CCN2CCN(C(=O)OC(C)(C)C)CC2)c1)c1ccccc1C#N (single isomer, unassigned) [Example 21 D2E1]	B (B = 25 to 50-fold selective for hTREX1)
> 0.01		> 0.01	Cc1ccnn1C(c1cc(F)ccc1Cl)C(C)c1nc(C(=O)Nc2cnoc2)c(O)c(=O)n1C (single isomer, unassigned) [Example 145 D1E2]	A (A = <25 fold selective for hTREX1)
